How the values were obtained:
Format in all cases: in vivo
[1] = tested on: ivyleaf morningglory (Ipomoea hederacea, IPOHE); assay: Post-emerge test, greenhouse herbicide activity screening; settings: post-emerge, 14 days after application, rating scale 0-100
In short: (§1)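 Compounds in acetone were track-sprayed at 187 l/ha, 15–1000 g ai/ha, onto sandy loam pots. Pre-emerge seeds were sown one day before spraying, with surface watering afterwards. Post-emerge plants were at the 2–3 leaf stage and sprayed with 0.25% v/v non-ionic surfactant. Injury was rated 0–100 at 14 days.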

[2] = tested on: velvetleaf (Abutilon theophrasti, ABUTH); assay: as above; settings: post-emerge, 14 days after application, rating scale 0-100
In short: as §1

[3] = tested on: green foxtail (Setaria viridis, SETVI); assay: as above; settings: post-emerge, 14 days after application, rating scale 0-100
In short: as §1

[4] = tested on: large crabgrass (Digitaria sanguinalis, DIGSA); assay: as above; settings: post-emerge, 14 days after application, rating scale 0-100
In short: as §1

[5] = tested on: sicklepod (Cassia obtusifolia, CASOB); assay: as above; settings: post-emerge, 14 days after application, rating scale 0-100
In short: as §1

[6] = tested on: barnyardgrass (Echinochloa crus-galli, ECHCG); assay: as above; settings: post-emerge, 14 days after application, rating scale 0-100
In short: as §1

[7] = tested on: johnsongrass (Sorghum halepense, SORHA); assay: as above; settings: post-emerge, 14 days after application, rating scale 0-100
In short: as §1

[8] = tested on: common ragweed (Ambrosia artemisizfolia L., AMBEL); assay: as above; settings: post-emerge, 14 days after application, rating scale 0-100
In short: as §1

[9] = tested on: lambsquarters (Chenopodium album, CHEAL); assay: as above; settings: post-emerge, 14 days after application, rating scale 0-100
In short: as §1

[10] = tested on: redroot pigweed (Amaranthus retroflexus, AMARE); assay: as above; settings: post-emerge, 14 days after application
In short: as §1

[11] = tested on: ivyleaf morningglory (Ipomoea hederacea, IPOHE); assay: Pre-emerge test, greenhouse herbicide activity screening; settings: pre-emerge, 14 days after application, rating scale 0-100
In short: (§2)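 Visual ratings on a 0-100 scale (0 no damage, 100 all plants dead) were taken at 14 days after treatment. Rates of 15-1000 g ai/ha in acetone, 187 l/ha, were sprayed onto soil one day after planting (pre-emerge) or onto 2-3 leaf plants with 0.25% v/v surfactant (post-emerge).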

[12] = tested on: velvetleaf (Abutilon theophrasti, ABUTH); assay: as above; settings: pre-emerge, 14 days after application, rating scale 0-100
In short: as §2

[13] = tested on: green foxtail (Setaria viridis, SETVI); assay: as above; settings: pre-emerge, 14 days after application, rating scale 0-100
In short: as §2

[14] = tested on: large crabgrass (Digitaria sanguinalis, DIGSA); assay: as above; settings: pre-emerge, 14 days after application, rating scale 0-100
In short: as §2

[15] = tested on: sicklepod (Cassia obtusifolia, CASOB); assay: as above; settings: pre-emerge, 14 days after application, rating scale 0-100
In short: as §2

[16] = tested on: barnyardgrass (Echinochloa crus-galli, ECHCG); assay: as above; settings: pre-emerge, 14 days after application, rating scale 0-100
In short: as §2

[17] = tested on: johnsongrass (Sorghum halepense, SORHA); assay: as above; settings: pre-emerge, 14 days after application, rating scale 0-100
In short: as §2

[18] = tested on: lambsquarters (Chenopodium album, CHEAL); assay: as above; settings: pre-emerge, 14 days after application, rating scale 0-100
In short: as §2

[19] = tested on: redroot pigweed (Amaranthus retroflexus, AMARE); assay: as above; settings: pre-emerge, 14 days after application, rating scale 0-100
In short: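 Herbicidal damage is scored 0 (none) to 100 (complete plant death) two weeks after a simulated field spray. Rates span 15–1000 g ai/ha, delivered in acetone at 187 l/ha. For post-emergence treatments, plants have 2–3 leaves and the spray carries 0.25% v/v non-ionic surfactant.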

[20] = tested on: field corn (Zea mays L., var. Dekalb 535, CORN); assay: Post-emerge test, crop safety; settings: post-emerge, 14 days after application, rating scale 0-100
In short: as §2

[21] = tested on: upland rice (Oryza sp., var. Tebonnet, RICE); assay: Post-emerge test, crop safety; settings: post-emerge, 14 days after application, rating scale 0-100
In short: as §2

[22] = tested on: field corn (Zea mays L., var. Dekalb 535, CORN); assay: Pre-emerge test, crop safety; settings: pre-emerge, 14 days after application, rating scale 0-100
In short: (§3)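 Applied at 15–1000 g ai/ha from acetone in 187 l/ha spray volume. Post-emergence applications included 0.25% v/v non-ionic surfactant and reached plants sown 8–21 days before. Pre-emergence applications were incorporated by surface watering. Efficacy or crop damage was rated on a 0–100 scale after 14 days.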

[23] = tested on: upland rice (Oryza sp., var. Tebonnet, RICE); assay: Pre-emerge test, crop safety; settings: pre-emerge, 14 days after application, rating scale 0-100
In short: as §3

## CCOC(=O)C(Cl)Cc1c(OC)c(Cl)cc(F)c1-c1nn(C)c(C(F)(F)F)c1Cl (stereo not shown) [14-56]
[1]; 63 g ai/ha
  Post-emerge Herbicidal Activity IPOHE (phytotoxicity rating): 100
[1]; 250 g ai/ha
  Post-emerge Herbicidal Activity IPOHE (phytotoxicity rating): 100
[2]; 63 g ai/ha
  Post-emerge Herbicidal Activity ABUTH (phytotoxicity rating): 70
[2]; 250 g ai/ha
  Post-emerge Herbicidal Activity ABUTH (phytotoxicity rating): 100
[3]; 63 g ai/ha
  Post-emerge Herbicidal Activity SETVI (phytotoxicity rating): 30
[3]; 250 g ai/ha
  Post-emerge Herbicidal Activity SETVI (phytotoxicity rating): 70
[4]; 63 g ai/ha
  Post-emerge Herbicidal Activity DIGSA (phytotoxicity rating): 10
[4]; 250 g ai/ha
  Post-emerge Herbicidal Activity DIGSA (phytotoxicity rating): 50
[5]; 63 g ai/ha
  Post-emerge Herbicidal Activity CASOB (phytotoxicity rating): 30
[5]; 250 g ai/ha
  Post-emerge Herbicidal Activity CASOB (phytotoxicity rating): 40
[6]; 63 g ai/ha
  Post-emerge Herbicidal Activity ECHCG (phytotoxicity rating): 20
[6]; 250 g ai/ha
  Post-emerge Herbicidal Activity ECHCG (phytotoxicity rating): 80
[7]; 63 g ai/ha
  Post-emerge Herbicidal Activity SORHA (phytotoxicity rating): 30
[7]; 250 g ai/ha
  Post-emerge Herbicidal Activity SORHA (phytotoxicity rating): 70
[8]; 63 g ai/ha
  Post-emerge Herbicidal Activity AMBEL (phytotoxicity rating): 90
[8]; 250 g ai/ha
  Post-emerge Herbicidal Activity AMBEL (phytotoxicity rating): 80
[9]; 63 g ai/ha
  Post-emerge Herbicidal Activity CHEAL (phytotoxicity rating): 99
[9]; 250 g ai/ha
  Post-emerge Herbicidal Activity CHEAL (phytotoxicity rating): 100
[10]; 63 g ai/ha, rating scale 0-100 (0 no damage, 100 complete death)
  Post-emerge Herbicidal Activity AMARE (phytotoxicity rating): 100
[10]; 250 g ai/ha, rating scale 0-100
  Post-emerge Herbicidal Activity AMARE (phytotoxicity rating): 100
[11]; 63 g ai/ha
  phytotoxicity rating IPOHE: 0
[11]; 250 g ai/ha
  phytotoxicity rating IPOHE: 0
[12]; 63 g ai/ha
  phytotoxicity rating ABUTH: 30
[12]; 250 g ai/ha
  phytotoxicity rating ABUTH: 60
[13]; 63 g ai/ha
  phytotoxicity rating SETVI: 20
[13]; 250 g ai/ha
  phytotoxicity rating SETVI: 70
[14]; 63 g ai/ha
  phytotoxicity rating DIGSA: 30
[14]; 250 g ai/ha
  phytotoxicity rating DIGSA: 40
[15]; 63 g ai/ha
  phytotoxicity rating CASOB: 0
[15]; 250 g ai/ha
  phytotoxicity rating CASOB: 10
[16]; 63 g ai/ha
  phytotoxicity rating ECHCG: 0
[16]; 250 g ai/ha
  phytotoxicity rating ECHCG: 0
[17]; 63 g ai/ha
  phytotoxicity rating SORHA: 0
[17]; 250 g ai/ha
  phytotoxicity rating SORHA: 30
[18]; 63 g ai/ha
  phytotoxicity rating CHEAL: 80
[18]; 250 g ai/ha
  phytotoxicity rating CHEAL: 100
[19]; 63 g ai/ha
  phytotoxicity rating AMARE: 100
[19]; 250 g ai/ha
  phytotoxicity rating AMARE: 100
[20]; 63 g ai/ha
  Post-emerge Herbicidal Activity CORN (crop damage rating): 10
[20]; 250 g ai/ha
  Post-emerge Herbicidal Activity CORN (crop damage rating): 30
[21]; 63 g ai/ha
  Post-emerge Herbicidal Activity RICE (crop damage rating): 0
[21]; 250 g ai/ha
  Post-emerge Herbicidal Activity RICE (crop damage rating): 25
[22]; 63 g ai/ha
  phytotoxicity rating CORN: 0
[22]; 250 g ai/ha
  phytotoxicity rating CORN: 0
[23]; 63 g ai/ha
  phytotoxicity rating RICE: 10
[23]; 250 g ai/ha
  phytotoxicity rating RICE: 10
